According to US10988523B2, “Modified lipidated Relaxin B chain peptides and their therapeutic use” (Sanofi, priority 2018, dated 2021):
*1 amine or outer side, *2 acyl side, *3 side chain or, on linkers, in order; H or OH if unused. Where a SMILES comes first, the peptide text is derived from it. Side-chain parts run from the residue outwards. [ ]: non-standard residue; d: D form. The star is where a group is joined. X14 = CCCCCCCCCCCCCCC(=O)N[C@@H](CCC(=O)N[C@@H](CCC(=O)N[C@@H](CCC(=O)NCCCC[C@H](NC(=O)CCC(=O)NCCCOCCOCCOCCCNC(=O)CCC(=O)NCCCOCCOCCOCCCNC(=O)CCC(=O)NCCCOCCOCCOCCCN*)C(N)=O)C(=O)O)C(=O)O)C(=O)O; X10 = CCCCCCCCCCCCCCCC(=O)N[C@@H](CCC(=O)N[C@@H](CCC(=O)N[C@@H](CCC(=O)NCCCOCCOCCOCCCNC(=O)CCC(=O)NCCCOCCOCCOCCCN*)C(=O)O)C(=O)O)C(=O)O; γGlu = O=C(O)[C@H](CCC(=O)[*:2])N[*:1]; Stearoyl = CCCCCCCCCCCCCCCCCC(=O)*; Suc = O=C(CCC(=O)[*:2])[*:1]; αMeK = C[C@](N)(CCCCN)C(=O)O; Nle = CCCC[C@H](N)C(=O)O; AEEA = NCCOCCOCC(=O)O; Aib = CC(C)(N)C(=O)O

Target: T1, RXFP1 (Homo sapiens, UniProt Q9HBX9)
T1 construct: OVCAR5 cells expressing endogenous RXFP1; endogenous in cells; host or cells: OVCAR5 cells
T1 sequence (Q9HBX9 1-757): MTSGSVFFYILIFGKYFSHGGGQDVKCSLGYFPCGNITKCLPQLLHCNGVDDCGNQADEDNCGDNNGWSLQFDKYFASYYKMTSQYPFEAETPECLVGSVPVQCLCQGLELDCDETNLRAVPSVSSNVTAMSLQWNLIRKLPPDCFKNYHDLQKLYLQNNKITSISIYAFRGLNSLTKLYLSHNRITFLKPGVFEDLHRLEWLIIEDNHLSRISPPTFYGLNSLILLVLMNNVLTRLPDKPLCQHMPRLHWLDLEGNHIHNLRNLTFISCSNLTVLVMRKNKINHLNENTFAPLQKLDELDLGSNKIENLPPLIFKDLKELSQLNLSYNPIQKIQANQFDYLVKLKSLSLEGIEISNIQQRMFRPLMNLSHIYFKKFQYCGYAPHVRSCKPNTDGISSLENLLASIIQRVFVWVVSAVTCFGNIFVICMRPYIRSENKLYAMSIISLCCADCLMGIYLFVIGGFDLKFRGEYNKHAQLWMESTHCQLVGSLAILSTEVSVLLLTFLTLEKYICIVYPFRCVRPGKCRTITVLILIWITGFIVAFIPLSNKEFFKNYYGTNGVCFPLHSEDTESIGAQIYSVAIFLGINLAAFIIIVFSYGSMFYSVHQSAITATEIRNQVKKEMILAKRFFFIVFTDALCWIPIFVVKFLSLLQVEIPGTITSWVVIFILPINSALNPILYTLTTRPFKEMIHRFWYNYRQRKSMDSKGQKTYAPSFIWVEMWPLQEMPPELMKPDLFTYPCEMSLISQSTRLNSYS
Assay: OVCAR5 cAMP assay (HTRF), RXFP1 agonist activity
Format: cell-based
Details: for Emax: OVCAR-5, maximal cAMP relative to H2-relaxin maximum (100%), read-out: EMax, OVCAR 5 cells (cAMP)
Method in brief: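 cAMP accumulation readout: after 1 mM IBMX for 40 min, endogenous-RXFP1 OVCAR5 cells got rising peptide concentrations without FCS, 30 min, 37° C, then lysis with HTRF cAMP reagents. Nonlinear regression gave EC50; Emax expressed relative to H2-relaxin maximum, same occasion.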

SMILES	Emax [%]	EC50 (OVCAR5 cells, cAMP HTRF, read-out: EC50 (nM), OVCAR 5 cells (cAMP)) [nM]
CCCCCCCCCCCCCCC(=O)N[C@@H](CCC(=O)N[C@@H](CCC(=O)N[C@@H](CCC(=O)NCCCC[C@H](NC(=O)CCC(=O)NCCCOCCOCCOCCCNC(=O)CCC(=O)NCCCOCCOCCOCCCNC(=O)CCC(=O)NCCCOCCOCCOCCCNC(=O)[C@H](CCCCNC(C)=O)NC(=O)[C@H](C)NC(=O)[C@H](CCCNC(=N)N)NC(=O)[C@](C)(CCCCN)NC(=O)[C@H](CO)NC(=O)[C@H](Cc1ccccc1)NC(=O)[C@@H](NC(=O)[C@H](CO)NC(=O)[C@H](CCCC)NC(=O)CNC(=O)[C@H](CCC(=O)O)NC(=O)C(C)(C)NC(=O)C(C)(C)NC(=O)[C@@H](NC(=O)[C@H](CCCCNC(C)=O)NC(=O)[C@H](C)NC(=O)[C@H](CCCNC(=N)N)NC(=O)[C@@H](NC(=O)[C@H](CCCCN)NC(=O)[C@H](CCC(=O)O)NC(=O)[C@H](CCCNC(=N)N)NC(=O)CNC(=O)[C@H](CCC(=O)O)NC(=O)[C@H](CC(C)C)NC(C)=O)C(C)C)[C@@H](C)CC)[C@@H](C)O)C(N)=O)C(=O)O)C(=O)O)C(=O)O [compound 188] (Ac-LEGREKVRAK(Ac)I[Aib][Aib]EG[Nle]STFS[αMeK]RAK(Ac)-X14)	100	–
CCCCCCCCCCCCCCCCCC(=O)N[C@@H](CCC(=O)N[C@@H](CCC(=O)N[C@@H](CCC(=O)NCCOCCOCC(=O)NCCOCCOCC(=O)NCCOCCOCC(=O)NCCCC[C@H](NC(=O)[C@H](CCCCN)NC(=O)[C@H](CCCCN)NC(=O)[C@H](CCCNC(=N)N)NC(=O)C(C)(C)NC(=O)[C@@H](NC(=O)[C@H](Cc1c[nH]c2ccccc12)NC(=O)[C@@H](NC(=O)[C@H](CO)NC(=O)[C@H](CCCC)NC(=O)CNC(=O)[C@H](CCC(=O)O)NC(=O)C(C)(C)NC(=O)C(C)(C)NC(=O)[C@@H](NC(=O)[C@H](CCC(N)=O)NC(=O)[C@H](C)NC(=O)[C@H](CCCNC(=N)N)NC(=O)[C@@H](NC(=O)[C@H](CCCCN)NC(=O)[C@H](CCC(=O)O)NC(=O)[C@H](CCCNC(=N)N)NC(=O)CNC(=O)[C@H](CCC(=O)O)NC(=O)[C@H](CC(C)C)NC(C)=O)C(C)C)[C@@H](C)CC)[C@@H](C)O)[C@@H](C)O)C(N)=O)C(=O)O)C(=O)O)C(=O)O [compound 76] (Ac-LEGREKVRAQI[Aib][Aib]EG[Nle]STWT[Aib]RKKK([AEEA-AEEA-AEEA-γGlu-γGlu-γGlu-Stearoyl])-NH2)	89	–
CCCCCCCCCCCCCCCC(=O)N[C@@H](CCC(=O)N[C@@H](CCC(=O)N[C@@H](CCC(=O)NCCCOCCOCCOCCCNC(=O)CCC(=O)NCCCOCCOCCOCCCNC(=O)CCC(=O)NCCCC[C@H](NC(=O)[C@H](CCCCNC(C)=O)NC(=O)[C@H](CCCCN)NC(=O)[C@H](CCCNC(=N)N)NC(=O)C(C)(C)NC(=O)[C@H](CO)NC(=O)[C@H](Cc1c[nH]c2ccccc12)NC(=O)[C@@H](NC(=O)[C@H](CO)NC(=O)[C@H](CCCC)NC(=O)CNC(=O)[C@H](CCC(=O)O)NC(=O)C(C)(C)NC(=O)C(C)(C)NC(=O)[C@@H](NC(=O)[C@H](CCCCNC(C)=O)NC(=O)[C@H](C)NC(=O)[C@H](CCCNC(=N)N)NC(=O)[C@@H](NC(=O)[C@H](CCCCN)NC(=O)[C@H](CCC(=O)O)NC(=O)[C@H](CCCNC(=N)N)NC(=O)CNC(=O)[C@H](CCC(=O)O)NC(=O)[C@H](CC(C)C)NC(C)=O)C(C)C)[C@@H](C)CC)[C@@H](C)O)C(N)=O)C(=O)O)C(=O)O)C(=O)O [compound 166] (Ac-LEGREKVRAK(Ac)I[Aib][Aib]EG[Nle]STWS[Aib]RKK(Ac)K([Suc-X10])-NH2)	92	0.26
